Laboratory results taken from patent US7459481B2, “Stimulation of CPT-1 as a means to reduce weight” (The Johns Hopkins University School of Medicine Licensing …, priority 2002, dated 2008).

How the values were obtained:
[1] = Respiratory exchange ratio by indirect calorimetry (Oxymax) in mice; type: in vivo
Method: In keeping with the C75 effect on both human and murine CPT-1 and fatty acid metabolism, C75 induces a profound and rapid stimulation of fatty acid oxidation in vivo. Mice were maintained in the Oxymax calorimeter (Oxymax Equal Flow System®, Columbus Instruments, Columbus, Ohio). Oxygen consumption and CO2 production was measured in up to four mice simultaneously using the indirect calorimeter. Measurements were recorded every 15 minutes over the entire course of the experiments. The respiratory exchange ratio (RER) was calculated by the Oxymax® software version 5.9. RER is defined as the ratio of CO2 to O2 at any given time irrespective if equilibrium was reached. Mice were maintained on water and mouse chow ad libitum. In the control mice (FIG. 8A), note the diurnal variation of RER indicating feeding and resting cycles of the animals. An RER of 1 is consistent with oxidation of carbohydrates while 0.7 indicates oxidation of fatty acids. […] C75 treatment at 30 mg/kg disrupts the diurnal pattern of the control mice, showing a rapid drop in RER to complete oxidation of fatty acids within about 2 hours. […] Importantly, the rate of decline of RER was similar to that observed for animals deprived of food (data not shown).

MCF-7 cells = experiment: Total cellular ATP (luciferase assay) in MCF-7 cells; type: cell-based, human; settings: MCF-7, 10 μg/ml and 20 μg/ml, 2 hours, FIG. 5
Method: 1×10^5 MCF-7 cells were plated in 96 well plates. Cells were treated with C75 or vehicle. After 2 hours, ATP was measured using a luciferase assay using the ATP Bioluminescence Kit CLS II (Roche) following the manufacturer's protocol. Plates were read by a Perkin Elmer Wallac Victor^2 1420 luminometer. […] Similar results were obtained after 1 hr incubation with C75. Thus, cellular energy production increased as a result of C75 increasing fatty acid oxidation.

FAS = FAS (Homo sapiens, UniProt P49327); experiment: FAS activity, malonyl-CoA dependent oxidation of NADPH at OD340; type: biochemical
FAS, sequence (P49327 whole entry): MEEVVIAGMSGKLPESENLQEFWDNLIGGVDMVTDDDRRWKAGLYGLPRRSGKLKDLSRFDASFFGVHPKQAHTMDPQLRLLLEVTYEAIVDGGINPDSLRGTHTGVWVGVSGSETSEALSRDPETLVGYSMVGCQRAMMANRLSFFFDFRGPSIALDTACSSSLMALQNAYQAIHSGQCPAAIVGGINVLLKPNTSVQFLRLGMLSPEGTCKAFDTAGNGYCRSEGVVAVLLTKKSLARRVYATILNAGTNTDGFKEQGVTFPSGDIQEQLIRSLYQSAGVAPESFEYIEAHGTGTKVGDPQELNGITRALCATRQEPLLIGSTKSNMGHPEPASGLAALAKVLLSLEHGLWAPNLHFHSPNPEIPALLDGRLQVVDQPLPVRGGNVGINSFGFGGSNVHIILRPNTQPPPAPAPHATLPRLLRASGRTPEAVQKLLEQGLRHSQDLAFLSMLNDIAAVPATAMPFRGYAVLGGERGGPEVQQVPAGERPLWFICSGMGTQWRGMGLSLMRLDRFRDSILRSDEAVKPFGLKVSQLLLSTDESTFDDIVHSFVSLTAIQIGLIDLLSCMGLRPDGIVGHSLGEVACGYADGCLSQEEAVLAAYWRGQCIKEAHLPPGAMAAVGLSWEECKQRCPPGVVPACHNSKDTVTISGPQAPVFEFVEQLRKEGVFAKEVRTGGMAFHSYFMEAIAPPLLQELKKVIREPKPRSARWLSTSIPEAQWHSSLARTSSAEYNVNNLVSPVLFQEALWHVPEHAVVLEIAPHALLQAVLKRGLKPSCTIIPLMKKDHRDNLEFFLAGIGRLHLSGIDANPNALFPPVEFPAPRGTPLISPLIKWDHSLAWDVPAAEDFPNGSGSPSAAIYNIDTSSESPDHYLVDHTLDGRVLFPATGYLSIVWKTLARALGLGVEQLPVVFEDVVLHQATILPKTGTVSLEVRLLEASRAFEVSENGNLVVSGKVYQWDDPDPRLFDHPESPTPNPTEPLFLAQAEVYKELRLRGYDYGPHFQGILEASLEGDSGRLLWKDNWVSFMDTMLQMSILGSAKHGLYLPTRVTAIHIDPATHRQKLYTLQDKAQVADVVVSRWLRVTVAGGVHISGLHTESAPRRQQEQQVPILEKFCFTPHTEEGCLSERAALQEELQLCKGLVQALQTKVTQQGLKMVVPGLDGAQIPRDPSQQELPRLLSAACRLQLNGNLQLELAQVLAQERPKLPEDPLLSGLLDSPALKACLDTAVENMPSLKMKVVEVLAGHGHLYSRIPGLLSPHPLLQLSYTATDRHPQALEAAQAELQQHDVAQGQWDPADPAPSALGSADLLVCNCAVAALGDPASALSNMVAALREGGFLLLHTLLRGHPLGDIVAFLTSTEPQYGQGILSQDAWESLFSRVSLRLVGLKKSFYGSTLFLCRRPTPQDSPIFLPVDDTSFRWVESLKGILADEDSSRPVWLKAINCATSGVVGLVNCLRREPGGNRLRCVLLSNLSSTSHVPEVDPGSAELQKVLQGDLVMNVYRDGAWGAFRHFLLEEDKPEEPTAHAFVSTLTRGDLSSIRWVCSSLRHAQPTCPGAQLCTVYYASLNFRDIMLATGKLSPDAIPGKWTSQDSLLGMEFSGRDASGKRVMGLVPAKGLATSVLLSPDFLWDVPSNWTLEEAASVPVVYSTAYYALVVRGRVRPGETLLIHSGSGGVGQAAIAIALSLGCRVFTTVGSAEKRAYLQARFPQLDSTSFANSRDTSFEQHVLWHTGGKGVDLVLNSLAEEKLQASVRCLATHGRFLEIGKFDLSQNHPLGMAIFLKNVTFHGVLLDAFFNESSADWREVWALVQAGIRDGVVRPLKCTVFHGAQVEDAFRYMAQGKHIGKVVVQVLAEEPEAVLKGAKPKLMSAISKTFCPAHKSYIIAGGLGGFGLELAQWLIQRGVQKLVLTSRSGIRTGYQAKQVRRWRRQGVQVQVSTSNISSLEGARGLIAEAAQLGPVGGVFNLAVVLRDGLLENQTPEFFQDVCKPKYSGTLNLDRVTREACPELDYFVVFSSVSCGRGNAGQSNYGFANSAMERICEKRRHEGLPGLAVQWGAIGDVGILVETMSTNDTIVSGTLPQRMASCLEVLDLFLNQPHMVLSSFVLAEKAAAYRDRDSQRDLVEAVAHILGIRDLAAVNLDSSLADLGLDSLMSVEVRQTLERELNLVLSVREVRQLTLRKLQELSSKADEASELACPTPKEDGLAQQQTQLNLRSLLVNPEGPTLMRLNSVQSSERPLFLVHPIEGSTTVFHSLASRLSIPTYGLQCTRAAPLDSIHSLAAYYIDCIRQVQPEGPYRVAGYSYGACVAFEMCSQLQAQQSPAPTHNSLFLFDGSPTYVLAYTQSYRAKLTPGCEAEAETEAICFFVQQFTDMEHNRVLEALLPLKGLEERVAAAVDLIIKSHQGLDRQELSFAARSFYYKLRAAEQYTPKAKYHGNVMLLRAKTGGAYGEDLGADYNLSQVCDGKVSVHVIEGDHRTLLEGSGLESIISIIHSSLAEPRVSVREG
Method: (§1) FAS activity was measured by monitoring the malonyl-CoA dependent oxidation of NADPH spectrophotometrically at OD340 in 96-well plates, as described in International Patent Publication WO 2004/005277. The IC50 for the compounds against FAS was determined by plotting the change in OD340 against time for each inhibitor concentration tested and determining the rate of change by linear regression. The concentration of a particular compound yielding 50% inhibition of the rate for FAS in the absence of the compound is the IC50. Stimulation of CPT-1 activity was measured as described in Example 2, except the cells were preincubated with the compound for 2 hours at the concentrations indicated in the table. Stimulation of Fatty acid oxidation was determined as described in Example 1 for cells preincubated with the compounds at the concentrations indicated in the table.

CPT-1 = target: T1, CPT-1 (Homo sapiens, UniProt P50416); experiment: CPT-1 activity assay in MCF-7 cells; type: cell-based
T1 construct: endogenous in cells; host or cells: MCF-7 human breast cancer cells
T1 sequence (P50416 1-773): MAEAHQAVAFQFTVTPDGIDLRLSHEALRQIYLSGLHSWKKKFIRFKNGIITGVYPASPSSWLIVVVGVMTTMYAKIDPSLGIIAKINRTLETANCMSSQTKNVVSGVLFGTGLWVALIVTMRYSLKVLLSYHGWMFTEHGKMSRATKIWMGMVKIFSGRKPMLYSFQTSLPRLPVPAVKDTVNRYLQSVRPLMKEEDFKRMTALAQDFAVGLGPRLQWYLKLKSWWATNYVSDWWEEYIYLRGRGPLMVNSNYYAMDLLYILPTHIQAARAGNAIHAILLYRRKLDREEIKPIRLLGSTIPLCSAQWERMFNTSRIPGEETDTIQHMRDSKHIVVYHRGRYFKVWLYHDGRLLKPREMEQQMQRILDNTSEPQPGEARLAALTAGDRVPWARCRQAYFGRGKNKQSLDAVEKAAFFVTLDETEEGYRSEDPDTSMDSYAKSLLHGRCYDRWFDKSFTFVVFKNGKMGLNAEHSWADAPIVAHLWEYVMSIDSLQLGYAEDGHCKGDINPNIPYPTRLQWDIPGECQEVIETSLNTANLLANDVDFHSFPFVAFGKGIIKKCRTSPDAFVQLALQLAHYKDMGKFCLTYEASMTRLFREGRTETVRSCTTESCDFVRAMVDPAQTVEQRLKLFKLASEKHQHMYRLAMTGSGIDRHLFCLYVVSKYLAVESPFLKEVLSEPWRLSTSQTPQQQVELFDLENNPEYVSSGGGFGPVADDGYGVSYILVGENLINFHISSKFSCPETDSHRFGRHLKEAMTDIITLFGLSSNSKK
Method: CPT-1 activity was assayed in MCF-7 cells by the following published procedure: MCF-7 cells were plated in DMEM with 10% fetal bovine serum at 10^6 cells in 24-well plates in triplicate. Following overnight incubation at 37° C., the medium was removed and replaced with 700 μl of assay medium consisting of: 50 mM imidazole, 70 mM KCl, 80 mM sucrose, 1 mM EGTA, 2 mM MgCl2, 1 mM DTT, 1 mM KCN, 1 mM ATP, 0.1% fatty acid free bovine serum albumin, 70 μM palmitoyl-CoA, 0.25 μCi [methyl-^14C]L-carnitine, 40 μg digitonin with or without 20 μM malonyl-CoA. After incubation for 6 minutes at 37° C., the reaction was stopped by the addition of 500 μl of ice-cold 4 M perchloric acid. Cells were then harvested and centrifuged at 13,000×g for 5 min. The pellet was washed with 500 μl ice cold 2 mM perchloric acid and centrifuged again. The resulting pellet was resuspended in 800 μl dH2O and extracted with 150 μl of butanol. The butanol phase was counted by liquid scintillation and represents the acylcarnitine derivative.
MCF-7 cells were treated with C75 at 10 or 20 μg/mL for 1 hr before CPT-1 activity was assayed. The assay was performed with the C75 and malonyl-CoA concentrations indicated (“M” indicates malonyl-CoA at 20 uM). Malonyl-CoA treatment alone caused a 46% reduction in CPT-1 activity similar to the previous experiment (see FIG. 2; p=0.02, two-tailed t-test, Prism 3.0). The level of malonyl-CoA inhibition of the CPT-1 activity is consistent with the activity of the liver isoform of CPT-1 in MCF-7 cells. The Ki of malonyl-CoA for the liver isoform of CPT-1 is ˜7 μM while the Ki for the muscle isoform of CPT-1 is 0.07 μM. Thus, MCF-7 cells express predominantly the liver isoform of CPT-1 (consistent with the immunoblot analysis).
as §1

Structure (SMILES): C=C1C(=O)OC(CCCCCCCC)C1C(=O)O (stereo not shown) [Compound C75]
- time for RER drop to oxidation of fatty acids ([1]; 30 mg/kg): ≤ 2 h
- respiratory exchange ratio (RER) after treatment ([1]; FIG. 8B): ~0.7
- total cellular ATP (MCF-7 cells): significant increase
- FAS Inhibition (IC50) (FAS): 55 µg/mL
- CPT-1 Stimulation (% Control) (CPT-1; 20 μg/mL, cells preincubated 2 hours): 125 % Control
- CPT-1 activity, % of control (CPT-1; MCF-7, 20 μg/ml 1 hr before assay, FIG. 4): 166 % of control
- CPT-1 activity, % of control (CPT-1; MCF-7, 20 μg/ml for one hour before assay, no C75 in the assay buffer, FIG. 3): 158 % of control
- CPT-1 stimulation after C75 removed from buffer and malonyl-CoA 20 μM added (CPT-1; MCF-7, C75 20 μg/ml one hour pretreatment, FIG. 3): stimulatory activity is lost
- difference in CPT-1 activity between C75 and C75 plus malonyl-CoA (CPT-1; MCF-7, C75 10 or 20 μg/mL 1 hr, malonyl-CoA 20 uM, FIG. 2): no statistically significant difference
- stimulated CPT-I activity (CPT-1; MCF-7 cells in vitro): 150-160%
